Results on one compound are retold here after ChEMBL document CHEMBL1139353, “Discovery of a new class of potential multifunctional atypical antipsychotic agents targeting dopamine D3 and serotonin 5-HT1A and 5-HT2A receptors: design, synthesis, and effects on behavior” (J Med Chem, 2009).

The target of assay [1] is T1, Adrenergic receptor alpha-1 (Rattus norvegicus, UniProt P15823+P23944+P43140).
T1 sequence (P15823 whole entry): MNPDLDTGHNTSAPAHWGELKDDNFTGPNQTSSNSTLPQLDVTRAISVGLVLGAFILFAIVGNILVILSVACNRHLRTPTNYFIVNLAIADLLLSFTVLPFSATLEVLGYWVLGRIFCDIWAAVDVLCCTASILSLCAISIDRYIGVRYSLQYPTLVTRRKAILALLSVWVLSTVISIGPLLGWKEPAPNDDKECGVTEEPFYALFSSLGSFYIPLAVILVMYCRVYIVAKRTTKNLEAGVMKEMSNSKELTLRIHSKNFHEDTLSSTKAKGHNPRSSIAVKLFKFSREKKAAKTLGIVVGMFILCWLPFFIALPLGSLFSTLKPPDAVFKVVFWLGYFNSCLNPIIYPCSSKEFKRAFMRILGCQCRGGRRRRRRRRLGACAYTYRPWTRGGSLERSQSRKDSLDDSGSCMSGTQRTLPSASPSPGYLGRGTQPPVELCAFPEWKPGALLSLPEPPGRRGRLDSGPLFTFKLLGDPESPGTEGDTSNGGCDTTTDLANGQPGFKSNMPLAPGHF
T1 sequence (P23944 whole entry): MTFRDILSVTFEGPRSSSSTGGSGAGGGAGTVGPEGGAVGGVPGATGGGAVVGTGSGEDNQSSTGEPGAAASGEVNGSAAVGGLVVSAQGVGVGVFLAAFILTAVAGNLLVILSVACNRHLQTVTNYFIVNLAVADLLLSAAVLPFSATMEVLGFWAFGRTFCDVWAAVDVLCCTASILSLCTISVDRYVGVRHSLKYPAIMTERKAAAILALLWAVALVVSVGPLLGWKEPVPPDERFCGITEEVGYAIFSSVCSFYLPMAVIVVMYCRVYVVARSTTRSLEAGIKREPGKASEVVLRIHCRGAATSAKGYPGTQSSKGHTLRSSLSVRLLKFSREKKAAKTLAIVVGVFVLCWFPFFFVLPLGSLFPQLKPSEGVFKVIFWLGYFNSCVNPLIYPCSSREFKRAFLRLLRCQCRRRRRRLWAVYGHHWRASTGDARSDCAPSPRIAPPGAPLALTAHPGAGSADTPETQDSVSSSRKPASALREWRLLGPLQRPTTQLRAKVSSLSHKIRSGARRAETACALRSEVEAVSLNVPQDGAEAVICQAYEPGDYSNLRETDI
T1 sequence (P43140 whole entry): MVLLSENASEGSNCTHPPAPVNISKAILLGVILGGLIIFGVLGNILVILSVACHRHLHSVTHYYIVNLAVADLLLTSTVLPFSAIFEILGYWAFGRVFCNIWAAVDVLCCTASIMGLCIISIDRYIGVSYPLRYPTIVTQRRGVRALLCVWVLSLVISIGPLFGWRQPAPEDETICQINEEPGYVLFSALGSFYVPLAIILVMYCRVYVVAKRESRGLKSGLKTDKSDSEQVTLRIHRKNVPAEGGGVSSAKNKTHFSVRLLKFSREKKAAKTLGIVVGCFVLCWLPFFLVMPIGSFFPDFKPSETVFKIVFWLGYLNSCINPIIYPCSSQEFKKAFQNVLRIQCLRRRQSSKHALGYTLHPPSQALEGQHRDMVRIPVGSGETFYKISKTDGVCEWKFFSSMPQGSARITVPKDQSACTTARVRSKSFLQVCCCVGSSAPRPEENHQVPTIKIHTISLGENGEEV
Briefly: Displacement of [3H]prazosin from adrenergic alpha1 receptor in rat cerebral cortex by liquid scintillation counting. It counts as tissue-based.

Assay [2] concerns the target T2, Adrenergic receptor alpha-2 (Rattus norvegicus, UniProt P22086+P19328+P22909).
T2 sequence (P22086 whole entry): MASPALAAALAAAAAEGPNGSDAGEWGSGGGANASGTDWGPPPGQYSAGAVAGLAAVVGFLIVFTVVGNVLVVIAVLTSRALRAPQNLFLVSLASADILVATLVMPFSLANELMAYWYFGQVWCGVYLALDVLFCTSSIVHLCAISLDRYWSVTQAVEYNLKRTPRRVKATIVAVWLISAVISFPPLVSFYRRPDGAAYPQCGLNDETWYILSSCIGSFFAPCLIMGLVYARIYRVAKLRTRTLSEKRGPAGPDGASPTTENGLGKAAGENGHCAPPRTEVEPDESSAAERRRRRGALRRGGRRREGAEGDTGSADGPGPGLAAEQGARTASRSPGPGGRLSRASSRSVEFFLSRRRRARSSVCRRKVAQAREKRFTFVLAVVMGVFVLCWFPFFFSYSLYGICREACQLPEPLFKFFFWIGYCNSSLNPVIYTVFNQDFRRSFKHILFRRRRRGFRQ
T2 sequence (P19328 whole entry): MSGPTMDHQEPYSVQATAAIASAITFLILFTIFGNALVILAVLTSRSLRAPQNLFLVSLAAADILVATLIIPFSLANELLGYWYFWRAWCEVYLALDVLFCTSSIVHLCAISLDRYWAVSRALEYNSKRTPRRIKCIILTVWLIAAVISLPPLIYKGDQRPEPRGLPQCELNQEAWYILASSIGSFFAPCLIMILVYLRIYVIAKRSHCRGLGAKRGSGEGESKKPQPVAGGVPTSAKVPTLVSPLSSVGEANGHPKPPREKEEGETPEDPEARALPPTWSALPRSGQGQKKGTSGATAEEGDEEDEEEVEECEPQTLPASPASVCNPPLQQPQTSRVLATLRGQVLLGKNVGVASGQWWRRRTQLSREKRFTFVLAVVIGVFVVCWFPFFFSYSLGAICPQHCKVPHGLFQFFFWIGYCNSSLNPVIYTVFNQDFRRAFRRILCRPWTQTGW
T2 sequence (P22909 whole entry): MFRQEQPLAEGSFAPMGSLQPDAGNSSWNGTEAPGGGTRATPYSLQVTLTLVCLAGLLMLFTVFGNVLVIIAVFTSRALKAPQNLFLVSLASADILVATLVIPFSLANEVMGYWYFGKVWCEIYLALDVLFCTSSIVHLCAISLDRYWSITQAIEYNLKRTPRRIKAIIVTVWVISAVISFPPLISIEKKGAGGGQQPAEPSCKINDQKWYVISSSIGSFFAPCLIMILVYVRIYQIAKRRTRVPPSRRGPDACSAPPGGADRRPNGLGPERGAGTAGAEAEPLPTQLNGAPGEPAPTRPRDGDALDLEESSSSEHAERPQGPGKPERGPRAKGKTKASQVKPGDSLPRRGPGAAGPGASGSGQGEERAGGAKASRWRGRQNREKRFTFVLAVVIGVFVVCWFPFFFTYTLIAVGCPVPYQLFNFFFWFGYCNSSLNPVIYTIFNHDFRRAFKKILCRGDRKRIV
Briefly: Displacement of [3H]clonidine from adrenergic alpha2 receptor in rat cerebral cortex by filtration technique. The class given is tissue-based. Background: In a radioligand displacement assay an active substance lowers the binding of a labelled ligand.

Assay [3] has as its target D(1A) dopamine receptor (Rattus norvegicus, UniProt P18901).
Description: Displacement of [3H]SCH23390 from dopamine D1 receptor in CRL:CD(SD)BR-COBS rat striatum by scintillation spectrometry
In assay [4] the target is D(3) dopamine receptor (Homo sapiens, UniProt P35462). Kind of assay: biochemical.
D(3) dopamine receptor, sequence (P35462 whole entry): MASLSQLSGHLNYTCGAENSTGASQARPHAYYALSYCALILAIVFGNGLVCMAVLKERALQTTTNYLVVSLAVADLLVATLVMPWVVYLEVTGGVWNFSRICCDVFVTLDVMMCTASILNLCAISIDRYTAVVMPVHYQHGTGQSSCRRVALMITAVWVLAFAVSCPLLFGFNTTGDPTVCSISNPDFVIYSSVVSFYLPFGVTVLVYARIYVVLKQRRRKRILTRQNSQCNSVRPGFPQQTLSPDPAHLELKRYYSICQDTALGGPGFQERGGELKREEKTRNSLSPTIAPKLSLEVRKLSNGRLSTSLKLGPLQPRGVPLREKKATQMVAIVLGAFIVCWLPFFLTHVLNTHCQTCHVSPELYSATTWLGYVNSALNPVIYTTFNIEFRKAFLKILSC
Description: Displacement of [3H]7OH-DPAT from dopamine D3 receptor expressed in Sf9 cells by scintillation spectrometry
Assay [5] deals with Mus musculus. The following applies: NMRI.
Description: Antipsychotic activity in NMRI mouse assessed as reduction in methamphetamine-induced locomotor activity administered 30 mins prior to testing measured for 60 mins

D(1A) dopamine receptor, sequence (P18901 whole entry): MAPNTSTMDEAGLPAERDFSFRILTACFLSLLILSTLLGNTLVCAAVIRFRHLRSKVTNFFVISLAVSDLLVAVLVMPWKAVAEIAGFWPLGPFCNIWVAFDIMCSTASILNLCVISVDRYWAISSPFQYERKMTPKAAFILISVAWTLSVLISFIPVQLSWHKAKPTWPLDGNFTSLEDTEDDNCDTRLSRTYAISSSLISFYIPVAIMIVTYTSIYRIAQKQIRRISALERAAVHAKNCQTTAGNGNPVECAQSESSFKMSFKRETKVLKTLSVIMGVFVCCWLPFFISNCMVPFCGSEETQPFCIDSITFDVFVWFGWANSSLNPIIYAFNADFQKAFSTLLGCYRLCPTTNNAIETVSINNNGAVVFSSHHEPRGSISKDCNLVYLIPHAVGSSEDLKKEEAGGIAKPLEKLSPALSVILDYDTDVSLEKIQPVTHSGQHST

Broadly, the Ki is the dissociation constant of the complex between target and ligand, obtained from inhibition or displacement. A low value points to a stronger hold on the target. Consider `Cc1cccc(N2CCN(CCCCNC(=O)c3cc4ccccc4o3)CC2)c1`, for which the Ki amounted to 6 nM in assay [1], 43 nM in assay [2], 3.29 µM in assay [3] and 4.5 nM in assay [4]. In assay [5], the Activity result is “Dose-dependent effect”.
